Test results published in article PMC10649961, “Novel Mitochondria-Targeted Amphiphilic Aminophosphonium Salts and Lipids Nanoparticles: Synthesis, Antitumor Activity and Toxicity” (Nanomaterials, 2023).
Read-outs that look alike come from different tables or passages of the source.

Experiments:
[1] = test system: PANC-1
[2] = test system: MCF-7; experiment: cells; settings: Homo sapiens, MCF7, 48 h, read-out: Cytotoxic Effects (IC50)
[3] = test system: SK-OV-3; experiment: cells; settings: Homo sapiens, SK-OV-3, 48 h, read-out: Cytotoxic Effects (IC50)
[4] = test system: T98G; experiment: cells; settings: Homo sapiens, 48 h, read-out: Cytotoxic Effects (IC50)
[5] = test system: MRSA-2; experiment: Antimicrobial activity, serial microdilutions, MRSA-2; type: cell-based, S. aureus; settings: Staphylococcus aureus; for MIC: read-out: Minimum Inhibitory Concentration (MIC); for MBC: read-out: Minimum bactericidal and fungicidal concentrations (MBC, MFC)
Description: (§1) The antimicrobial activity of test compounds was determined by serial microdilutions in 96-well plates using Mueller-Hinton broth for bacterial culture and Sabouraud broth for yeast culture. Cultures of Gram-positive bacteria were used in the experiment: Staphylococcus aureus ATCC 6538 P FDA 209P, Bacillus cereus ATCC 10702 NCTC 8035, Enterococcus faecalis ATCC 29212; Gram-negative bacteria: Escherichia coli ATCC 25922, Pseudomonas aeruginosa ATCC 9027; and yeast: Candida albicans ATCC 10231, purchased from the State Collection of Pathogenic Microorganisms and Cell Cultures “SCPM-Obolensk” (Obolensk, Russia). Methicillin-resistant strains of S. aureus (MRSA) were isolated from patients with chronic tonsillitis (MRSA-1) and sinusitis (MRSA-2) in the bacteriological laboratory of the Republican Clinical Hospital (Kazan, Russia). The experiments were carried out in triplicate.

[6] = test system: MRSA-1; experiment: Antimicrobial activity, serial microdilutions, MRSA-1; type: cell-based, S. aureus; settings: Staphylococcus aureus; for MIC: read-out: Minimum Inhibitory Concentration (MIC); for MBC: read-out: Minimum bactericidal and fungicidal concentrations (MBC, MFC)
Description: as §1

[7] = test system: Pseudomonas aeruginosa ATCC 9027; experiment: Antimicrobial activity, serial microdilutions, Pa; type: cell-based; set-up: key to Minimum Inhibitory Concentration (MIC) / Minimum bactericidal and fungicidal concentrations (MBC, MFC): – means non-active; settings: for MIC / MBC: Pseudomonas aeruginosa; for MIC: ATCC9027, read-out: Minimum Inhibitory Concentration (MIC); for MBC: ATCC9027, read-out: Minimum bactericidal and fungicidal concentrations (MBC, MFC)
Description: as §1

[8] = test system: MCF-7
[9] = test system: HuTu 80
[10] = test system: A549; experiment: cells; settings: Homo sapiens, A549, 48 h, read-out: Cytotoxic Effects (IC50)
[11] = test system: Hep G2; experiment: cells; settings: Homo sapiens, HepG2, 48 h, read-out: Cytotoxic Effects (IC50)
[12] = test system: HuTu 80; experiment: cells; settings: Homo sapiens, HuTu80, 48 h, read-out: Cytotoxic Effects (IC50)
[13] = test system: M-HeLa; settings: calculated relative to the cell line Chang liver (b)
[14] = test system: Hep G2
[15] = test system: A549
[16] = test system: Escherichia coli ATCC 25922; experiment: Antimicrobial activity, serial microdilutions, Ec; type: cell-based; settings: Escherichia coli; for MIC: ATCC25922, read-out: Minimum Inhibitory Concentration (MIC); for MBC: ATCC25922, read-out: Minimum bactericidal and fungicidal concentrations (MBC, MFC)
Description: as §1

[17] = test system: M-HeLa; experiment: cells; settings: Homo sapiens, 48 h, read-out: Cytotoxic Effects (IC50)
[18] = test system: PANC-1; experiment: cells; settings: Homo sapiens, PANC-1, 48 h, read-out: Cytotoxic Effects (IC50)
[19] = test system: Enterococcus faecalis ATCC 29212; experiment: Antimicrobial activity, serial microdilutions, Ef; type: cell-based; set-up: key to Minimum Inhibitory Concentration (MIC) / Minimum bactericidal and fungicidal concentrations (MBC, MFC): – means non-active; settings: for MIC / MBC: Enterococcus faecalis; for MIC: ATCC29212, read-out: Minimum Inhibitory Concentration (MIC); for MBC: ATCC29212, read-out: Minimum bactericidal and fungicidal concentrations (MBC, MFC)
Description: as §1

[20] = test system: PC3
[21] = test system: SK-OV-3
[22] = test system: Bacillus cereus ATCC 10702 NCTC 8035; experiment: Antimicrobial activity, serial microdilutions, Bc; type: cell-based; settings: Bacillus cereus; for MIC: Bc, read-out: Minimum Inhibitory Concentration (MIC); for MBC: read-out: Minimum bactericidal and fungicidal concentrations (MBC, MFC)
Description: as §1

[23] = test system: Staphylococcus aureus ATCC 6538 P FDA 209P; experiment: Antimicrobial activity, serial microdilutions, Sa; type: cell-based; settings: Staphylococcus aureus; for MIC: read-out: Minimum Inhibitory Concentration (MIC); for MBC: read-out: Minimum bactericidal and fungicidal concentrations (MBC, MFC)
Description: as §1

[24] = test system: T98G
[25] = test system: Candida albicans ATCC 10231; experiment: Antimicrobial activity, serial microdilutions, Ca; type: cell-based; set-up: key to Minimum Inhibitory Concentration (MIC) / Minimum bactericidal and fungicidal concentrations (MBC, MFC): – means non-active; settings: for MIC: read-out: Minimum Inhibitory Concentration (MIC)
Description: as §1

[26] = test system: PC3; experiment: cells; settings: Homo sapiens, PC-3, 48 h, read-out: Cytotoxic Effects (IC50), PC3, MTT assay, 48 h
[27] = test system: DU-145
[28] = test system: DU-145; experiment: cells; settings: Homo sapiens, DU-145, 48 h, read-out: Cytotoxic Effects (IC50), DU-145, MTT assay, 48 h
[29] = calculated relative to the cell line Chang liver (b)
[30] = reference normal cell line not marked at the place (ns cells)
[31] = calculated relative to the cell line WI38 (a)

| Compound | IC50 [2] [nM] | IC50 [3] [nM] | IC50 [4] [nM] | MIC [5] [µM] | MBC [5] [µM] | MIC [6] [µM] | MBC [6] [µM] | IC50 [10] [nM] | IC50 [11] [nM] | IC50 [12] [nM] | MIC [16] [µM] | MBC [16] [µM] | IC50 [17] [nM] | IC50 [18] [nM] | MIC [19] [µM] | MIC [22] [µM] | MBC [22] [µM] | MIC [23] [µM] | MBC [23] [µM] | IC50 [26] [nM] | further results |
| --- | --- | --- | --- | --- | --- | --- | --- | --- | --- | --- | --- | --- | --- | --- | --- | --- | --- | --- | --- | --- | --- |
| CCCCCCCCC[P+](N(CC)CC)(N(CC)CC)N(CC)CC [4c, Tris(diethylamino)(nonyl)phosphonium iodide] | 1900 ± 100 | 12100 ± 1100 | 3200 ± 200 | 7.8 ± 0.6 | 250 ± 20 | 3.9 ± 0.4 | 125 ± 10 | 21100 ± 1500 | 2400 ± 100 | 2600 ± 200 | 500 ± 48 | 500 ± 48 | 1700 ± 100 | 1700 ± 100 | 62.5 ± 5.2 | 3.9 ± 0.3 | > 500 | 3.9 ± 0.3 | 250 ± 18 | 1800 ± 100 | selectivity index (SI) [1, 29]: 2.8; Minimum Inhibitory Concentration (MIC) [7]: –; Minimum bactericidal and fungicidal concentrations (MBC, MFC) [7]: –; selectivity index (SI) [8, 29]: 2.5; selectivity index (SI) [9, 29]: 1.8; selectivity index (SI) [13]: 2.8; selectivity index (SI) [14, 29]: 2.0; selectivity index (SI) [15, 30]: ns (ns—no selectivity); MBC [19]: 500 ± 48 µM; selectivity index (SI) [20, 29]: 2.7; selectivity index (SI) [21, 30]: ns (ns—no selectivity); selectivity index (SI) [24, 29]: 1.5; Minimum Inhibitory Concentration (MIC) ([25]; Ca): –; Minimum bactericidal and fungicidal concentrations (MBC, MFC) ([25]; Ca): – |
| CCCCCCCCCCCCCC[P+](N(CC)CC)(N(CC)CC)N(CC)CC [4e, Tris(diethylamino)(tetradecyl)phosphonium bromide] | 900 ± 70 | 1700 ± 100 | 1000 ± 90 | 0.25 ± 0.02 | 0.25 ± 0.02 | 0.5 ± 0.04 | 0.5 ± 0.04 | 1700 ± 100 | 1500 ± 100 | 60 ± 5 | 15.6 ± 1.3 | 62.5 ± 5.2 | 400 ± 30 | 400 ± 30 | 0.5 ± 0.04 | 0.5 ± 0.04 | 7.8 ± 0.6 | 0.25 ± 0.01 | 0.9 ± 0.07 | 1700 ± 100 | selectivity index (SI) [1, 29]: 4.3; MIC [7]: 7.8 ± 0.6 µM; MBC [7]: 7.8 ± 0.6 µM; selectivity index (SI) [8, 29]: 1.9; selectivity index (SI) [9, 29]: 28; selectivity index (SI) [27, 29]: 4.3; selectivity index (SI) [13]: 4.3; selectivity index (SI) [14, 29]: 1.1; selectivity index (SI) [15, 29]: 1.0; IC50 [28]: 400 ± 30 nM; MBC [19]: 1.9 ± 0.1 µM; selectivity index (SI) [20, 29]: 1.0; selectivity index (SI) [21, 29]: 1.0; selectivity index (SI) [24, 29]: 1.7; MIC ([25]; Candida albicans, ATCC10231): 1.9 ± 0.1 µM; MBC ([25]; Candida albicans, ATCC10231, read-out: Minimum bactericidal and fungicidal concentrations (MBC, MFC)): 7.8 ± 0.6 µM |
| CCCCCCCCC[P+](c1ccccc1)(c1ccccc1)N(CC)CC [6c, (Diethylamino)(nonyl)diphenylphosphonium iodide] | 4200 ± 300 | 12700 ± 1100 | 2400 ± 100 | 3.9 ± 0.4 | 7.8 ± 0.7 | 3.9 ± 0.3 | 62.5 ± 5.4 | 11400 ± 900 | 6200 ± 500 | 200 ± 10 | 500 ± 46 | 500 ± 47 | 900 ± 70 | 1300 ± 100 | 31.3 ± 5.4 | 1.9 ± 0.1 | > 500 | 3.9 ± 0.3 | 125 ± 11 | 1000 ± 80 | selectivity index (SI) [1, 31]: 6.4; MIC [7]: 250 ± 21 µM; MBC [7]: 250 ± 21 µM; selectivity index (SI) [8, 31]: 2.0; selectivity index (SI) [9, 31]: 42; selectivity index (SI) [27, 31]: 6.4; selectivity index (SI) [14, 31]: 1.3; selectivity index (SI) [15, 30]: ns (ns—no selectivity); IC50 [28]: 1300 ± 100 nM; Minimum bactericidal and fungicidal concentrations (MBC, MFC) [19]: –; selectivity index (SI) [20, 31]: 8.3; selectivity index (SI) [21, 30]: ns (ns—no selectivity); selectivity index (SI) [24, 31]: 3.5; Minimum bactericidal and fungicidal concentrations (MBC, MFC) ([25]; Ca): –; MIC ([25]; Candida albicans, ATCC10231): 500 ± 47 µM |
